Results: US20080063703A1, “Active Drug Delivery in the Gastrointestinal Tract” (priority 2004, published 2008)
Read-outs that look alike come from different tables or passages of the source.

Columns and labels:
[1] = test system: rat jejunum; assay: In vitro macromolecule permeation of rat jejunum sections with/without electrical stimulation and L-NAME (FIG. 37); type: in vitro ADME
Experimental: Reference is now made to FIG. 37, which is a graph showing in vitro measurements of macromolecule permeation, measured in accordance with an embodiment of the present invention. Several sections of rat jejunum were prepared, and the permeation of the sections to Leuprolide and Octreotide peptides was measured with and without electrical stimulation, and with and without application of 1 mM N^G-Nitro-L-Arginine methyl ester (L-NAME), a non-specific nitric oxide (NO) synthase (NOS) inhibitor. The electrical stimulation included the following parameters: 18 Hz, 1 ms pulses, and 5 mA (corresponding to a voltage of about 2 V).

[2] = test system: proabsorptive effect of NO; conditions: addition of NOS inhibitors; cited from earlier work
[3] = test system: electrically-induced NO synthesis and release; conditions: NO synthase inhibitor added; cited from earlier work
[4] = test system: rat intestine; conditions: all regions of the rat intestine; cited from earlier work
[5] = test system: mouse ileum; conditions: addition of NO donors to mouse ileum; cited from earlier work
[6] = test system: jejunal tissue; assay: Octreotide permeation via jejunal tissue in diffusion chamber 500 with LITV pulses (FIGS. 27-36); type: in vitro ADME, Wistar rat; conditions: for permeation efficiency, effect of pulse cycle: 1 millisecond (FIG. 31); for octreotide permeation vs control group: 3 mA (FIG. 29); for permeation efficiency, effect of electrode material: 1 millisecond (FIG. 34)
Experimental: (§1) Reference is now made to FIG. 26, which is a schematic cross-sectional illustration of an experimental diffusion chamber 500, and FIGS. 27-36, which are graphs showing in vitro experimental results generated in accordance with respective embodiments of the present invention. A number of 300 g Wistar rats were anaesthetized using Ketamine (100 mg/kg) and Xylazine (10 mg/kg). Two 3 cm-long sections 510 of the intestine were removed from each rat and opened along the mesenterial line so that two rectangular pieces of tissue were available from each rat (a single tissue section 510 is shown in FIG. 26). For the experiments described hereinbelow with reference to FIGS. 27-35, the intestinal sections were taken from the upper jejunum, while for the experiment described hereinbelow with reference to FIG. 36, the intestinal sections were taken from the upper jejunum, proximal ileum, and distal ileum. The serosal and muscular layers of the intestinal sections were removed using a microscope cover glass. Each of the intestinal tissue segments was placed on a slide and inserted into diffusion chamber 500.
Diffusion chamber 500 is shaped so as to define a donor cell 520 and an acceptor cell 522, connected by a 28 mm×8 mm window 524. Tissue segment 510 on the slide completely covered window 524. Tissue segment 510 was placed so as to completely cover window 524, thereby separating donor cell 520 and acceptor cell 522. Tissue segment 510 was oriented such that the mucosal side thereof faced donor cell 520, and the serosal side thereof faced acceptor cell 522. Donor cell 520 was filled with 15 ml of Hank's Balanced Salt Solution (HBSS) adjusted to a pH of 7.4 (in mM: 136.9 NaCl, 5.4 KCl, 0.5 MgCl2, 0.4 MgSO4, 4.5 KH2PO4, 0.35 Na2HPO4, 1.0 CaCl2, 4.2 NaHCO3, 5.5 D-Glucose). Acceptor cell 522 was filled with D-Glucose-supplemented Phosphate Buffered Saline (PBS) adjusted to a pH of 7.4 (in mM: 136.9 NaCl, 2.7 KCl, 0.5 MgCl2, 1.5 KH2PO4, 8.1 Na2HPO4, 0.7 CaCl2, 5.5 D-Glucose).
After tissue segment 510 was placed over window 524, the donor cell was divided into two separate compartments 526a and 526b by an electrically-insulating divider 528 positioned to slightly touch tissue segment 510 so that fluid passage between compartments 526a and 526b was slow (if not impossible). (Donor cell 520 was not divided into compartments 526a and 526b in the experiment described hereinbelow with reference to FIG. 33.) The solution was maintained at 37° C. and gassed with 95% O2/5% CO2, supplied via 1 mm ID tubes placed at the bottom of each cell (tubes not shown in FIG. 26).
A single square electrode 530 was placed in each of compartments 526a and 526b of donor cell 520, such that an electrode surface 532 of each electrode was parallel to the surface of tissue segment 510, at a 0.5 mm distance from tissue segment 510 (except for the experiment described hereinbelow with reference to FIG. 32). Electrodes 530 comprised stainless steel (SS316L, 6 mm×6 min) (except for the experiment described hereinbelow with reference to FIG. 34). The distance between the centers of electrode surfaces 532 was 10 mm. After tissue segment 510 was in position over window 524 for 30 minutes, the HBSS in donor cell 520 was replaced with 1 mg/ml octreotide acetate (Sandostatin) containing HBSS.
In each of the experiments described hereinbelow with reference to FIGS. 27-36, beginning upon replacement of the HBSS in donor cell 520 with octreotide, a train of LITV pulses was applied through electrodes 530, and the permeation of octreotide from donor cell 520 to acceptor cell 522 via tissue segment 510 was measured. This train of monophasic rectangular pulses was generated using a Thurlby Thandar Instruments TGP110 pulse generator. The voltage output of the pulse generator was adjusted so that a 3 mA current flowed through the electrodes. An EZ Digital Co. DM330 Digital Multimeter, connected serially to the electrodes, was used to measure current. […]

[7] = test system: upper jejunum tissue segments; assay: Octreotide permeation via rat upper jejunum tissue segment in diffusion chamber, with or without LITV pulses (FIG. 24); type: in vitro ADME, Wistar rat; conditions: LITV pulses 12 Hz, 1 millisecond, 3 mA vs control without stimulation; 1 mg/ml octreotide acetate, 90-minute period
Experimental: Reference is now made to FIG. 24, which is a graph showing in vitro experimental results measured in accordance with an embodiment of the present invention. A 300 g Wistar rat was anaesthetized using Ketamine (100 mg/kg) and Xylazine (10 mg/kg). Two 3 cm-long sections of the upper jejunum were removed and opened along the lumen so that two rectangular pieces of tissue were available. The serosal and muscular layers were removed using a microscope cover glass. The intestinal tissue segments were placed on slides and inserted into diffusion chambers similar to experimental diffusion chamber 500, described hereinbelow with reference to FIG. 26. […] The tissue segments on the slides completely covered the windows between the donor and acceptor cells. The cells were filled with 15 ml of Hank's Balanced Salt Solution (HBSS) (pH 7.4). The donor cells were then divided into two separate sections with a dividing board slightly touching the tissue so that fluid passage between the two parts of each donor cell was slow (if not impossible). […]
In one of the diffusion chambers (which served as a control), permeation of octreotide via the tissue segment was measured without the application of electrical stimulation. […] The samples were analyzed by HPLC-UV 205 nm spectroscopy (Hewlett-Packard 1100, acetonitril: phosphate buffer (pH 7.4) (40:60), C18 column) for their content of octreotide.

[8] = test system: proximal ileum tissue; assay: Octreotide permeation via proximal ileum tissue in diffusion chamber 500 with LITV pulses (FIG. 36); type: in vitro ADME, Wistar rat; conditions: 18 Hz, 3 mA, 1 millisecond vs control, at 7 minutes (FIG. 36)
Experimental: as §1, with “Each of the intestinal tissue segments was placed on a slide and inserted into diffusion chamber 500.” left out
(§2) In each of the experiments described hereinbelow with reference to FIGS. 27-36, beginning upon replacement of the HBSS in donor cell 520 with octreotide, a train of LITV pulses was applied through electrodes 530, and the permeation of octreotide from donor cell 520 to acceptor cell 522 via tissue segment 510 was measured. […]

[9] = test system: distal ileum tissue; assay: Octreotide permeation via distal ileum tissue in diffusion chamber 500 with LITV pulses (FIG. 36); type: in vitro ADME, Wistar rat; conditions: 18 Hz, 3 mA, 1 millisecond vs control, at 7 minutes (FIG. 36)
Experimental: as §1, with “Each of the intestinal tissue segments was placed on a slide and inserted into diffusion chamber 500.” left out
as §2

COC(=O)[C@@H](N)CCCNC(=N)N[N+](=O)[O-] [L-NAME, N^G-Nitro-L-Arginine methyl ester]
effect of NOS inhibition on peptide permeation vs non-NOS-inhibited groups ([1]; 1 mM L-NAME, with and without stimulation): substantially less
proabsorptive effect of NO [2]: significantly reduced

CNC(=N)NCCC[C@H](N)C(=O)O [L-NMA, N^G-methyl-L-arginine]
proabsorptive effect of NO [2]: significantly reduced

N=C(NCCC[C@H](N)C(=O)O)N[N+](=O)[O-] [L-NNA, N^G-nitro-L-arginine]
proabsorptive effect of NO [2]: significantly reduced
electrically-induced NO synthesis and release [3]: almost entirely prevented

CCNC(=O)[C@@H]1CCCN1C(=O)[C@H](CCCNC(=N)N)NC(=O)[C@H](CC(C)C)NC(=O)[C@@H](CC(C)C)NC(=O)[C@H](Cc1ccc(O)cc1)NC(=O)[C@H](CO)NC(=O)[C@H](Cc1c[nH]c2ccccc12)NC(=O)[C@H](Cc1c[nH]cn1)NC(=O)[C@@H]1CCC(=O)N1 [Leuprolide]
penetration of the peptides [1]: about 0.6 ug/ml

CC(C)N(CCCN)/[N+]([O-])=N/O [NOC5]
absorption of macromolecules [4]: improve absorption of macromolecules

CNCCCN(C)/[N+]([O-])=N/O [NOC7]
absorption of macromolecules [4]: improve absorption of macromolecules

CCNCCN(CC)/[N+]([O-])=N/O [NOC12]
absorption of macromolecules [4]: improve absorption of macromolecules

CC(=O)N[C@H](C(=O)O)C(C)(C)SN=O [SNAP, S-nitroso-acetyl-penicillamine]
transepithelial electrical resistance [5]: decrease in transepithelial electrical resistance

C[C@@H](O)[C@@H]1NC(=O)[C@H](CCCCN)NC(=O)[C@@H](Cc2c[nH]c3ccccc23)NC(=O)[C@H](Cc2ccccc2)NC(=O)[C@@H](NC(=O)[C@H](N)Cc2ccccc2)CSSC[C@@H](C(=O)N[C@H](CO)[C@@H](C)O)NC1=O [octreotide, octreotide acetate]
permeation of the peptides ([1]; NOS-inhibited (1 mM L-NAME) non-stimulation group, after 45 minutes): about 0.45 ug/ml
permeation of the peptides ([1]; NOS-inhibited (1 mM L-NAME) stimulation group (18 Hz, 1 ms, 5 mA), after 45 minutes): about 0.45 ug/ml
permeation of the peptides ([1]; non-NOS-inhibited electrical stimulation group (18 Hz, 1 ms, 5 mA), after 45 minutes): about 1.45 ug/ml
penetration of the peptides ([1]; non-stimulation, non-NOS-inhibited control group, after 45 minutes): about 0.6 ug/ml
magnitude of permeation efficiency, effect of electrode distance from jejunal tissue ([6]; 0.5 mm vs 3 mm, 18 Hz, 3 mA, 1 millisecond, at 15 minutes (FIG. 32)): greater at 0.5 mm than at 3 mm
permeation efficiency, effect of pulse cycle ([6]; 1 pulse per cycle, 18 Hz, 3 mA): greatest permeation efficiency
enhancement ratio, effect of pulse frequency ([6]; 18 Hz among 5-60 Hz tested, 1 millisecond, 3 mA, at 30 minutes (FIG. 28)): greatest enhancement ratio
permeation efficiency, effect of cessation of pulse application ([6]; continuous application vs cessation after 10 minutes, 18 Hz, 3 mA, 1 millisecond (FIG. 35)): substantially greater permeation efficiency
permeation efficiency, effect of electrode insulation ([6]; electrodes not insulated from each other (without divider 528), 18 Hz, 3 mA, 1 millisecond (FIG. 33)): did not increase permeation efficiency
permeation efficiency, effect of pulse cycle ([6]; increasing number of pulses per cycle (2, 3), 18 Hz, 3 mA): the permeation efficiency decreased
permeation efficiency in different regions of the intestine ([6]; jejunal tissue, 18 Hz, 3 mA, 1 millisecond vs control, at 7 minutes (FIG. 36)): greatest effect of pulse application
enhancement ratio, effect of pulse duration ([6]; pulse duration 1 millisecond among 0.2-3 milliseconds tested, 18 Hz, 3 mA, at 15 minutes (FIG. 30)): greatest enhancement ratio
octreotide permeation (permeation efficiency) ([6]; pulses 1 millisecond, 18 Hz, 3 mA vs non-stimulated control group (FIG. 27)): substantially enhanced octreotide permeation
octreotide permeation vs control group ([6]; pulses at 5 Hz, 1 millisecond): did not yield a higher octreotide permeation
octreotide permeation vs control group ([6]; pulses at 60 Hz, 1 millisecond): did not yield a higher octreotide permeation
permeation efficiency, effect of electrode material ([6]; silver chloride electrodes, 18 Hz, 3 mA): did not increase permeation efficiency
permeation efficiency, effect of electrode material ([6]; stainless steel (SS316L) electrodes, 18 Hz, 3 mA): substantially increased permeation efficiency
permeation efficiency, effect of electrode material ([6]; titanium nitride electrodes, 18 Hz, 3 mA): did not increase permeation efficiency
octreotide permeation into acceptor cell [7]: substantially greater increase in octreotide permeation
permeation efficiency in different regions of the intestine [8]: increased permeation efficiency
permeation efficiency in different regions of the intestine [9]: positive but less pronounced effect
